Source: ChEMBL document CHEMBL1201862, “PubChem BioAssay data set” (2004)
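Results reflect a 48-hour exposure of cells in 96-well plates to compound at five concentrations. GI50 marks 50% less growth.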 The source made the active and inactive calls. Cut-off read from the data, not from the text of the source: active = GI50 up to about 1.1 µM and inactive = higher.

What was measured:
Assay in all cases: NCI anticancer screen, dose series, 48 h
SW-620 = system: SW-620
NCI-H23 = system: NCI-H23
MCF7 = system: MCF7
HL-60 = system: HL-60
Malme-3M = system: Malme-3M
IGROV-1 = system: IGROV-1
HCT-15 = system: HCT-15
NCI-H522 = system: NCI-H522
MDA-MB-231 = system: MDA-MB-231
SNB-19 = system: SNB-19
HOP-92 = system: HOP-92
PC-3 = system: PC-3
SK-MEL-2 = system: SK-MEL-2
OVCAR-3 = system: OVCAR-3
MOLT-4 = system: MOLT-4
Hs-578T = system: Hs-578T
OVCAR-8 = system: OVCAR-8
K562 = system: K562
HCT-116 = system: HCT-116
KM12 = system: KM12
LOX IMVI = system: LOX IMVI
RPMI-8226 = system: RPMI-8226
HOP-62 = system: HOP-62
BT-549 = system: BT-549
A498 = system: A498
ACHN = system: ACHN
SR = system: SR
HT-29 = system: HT-29
786-0 = system: 786-0
A549 = system: A549
SF-295 = system: SF-295
SK-OV-3 = system: SK-OV-3
NCI-H460 = system: NCI-H460
MDA-MB-435 = system: MDA-MB-435
NCI-H226 = system: NCI-H226
OVCAR-5 = system: OVCAR-5
DU-145 = system: DU-145
SNB-75 = system: SNB-75
SN12C = system: SN12C
OVCAR-4 = system: OVCAR-4
SF-268 = system: SF-268
COLO 205 = system: COLO 205
RXF 393 = system: RXF 393
NCI/ADR-RES = system: NCI/ADR-RES
M14 = system: M14
EKVX = system: EKVX
SK-MEL-28 = system: SK-MEL-28
HCC 2998 = system: HCC 2998
T47D = system: T47D
CAKI-1 = system: CAKI-1
CCRF-CEM = system: CCRF-CEM
UACC-257 = system: UACC-257
U-251 = system: U-251
TK-10 = system: TK-10
SF-539 = system: SF-539
UO-31 = system: UO-31
SK-MEL-5 = system: SK-MEL-5
UACC-62 = system: UACC-62
MDA-N = system: MDA-N

## C=C1c2nc3ccccc3n2C=C(c2ccc(C)cc2)N1c1ccc(OC)cc1
SW-620
  GI50: 13.6 µM (inactive)
NCI-H23
  GI50: > 73.6 µM (inactive)
MCF7
  GI50: 15.3 µM (inactive)
HL-60
  GI50: 8.34 µM (inactive)
Malme-3M
  GI50: 21.8 µM (inactive)
IGROV-1
  GI50: > 83 µM (inactive)
HCT-15
  GI50: 9.51 µM
NCI-H522
  GI50: 7.52 µM (inactive)
MDA-MB-231
  GI50: > 100 µM (inactive)
SNB-19
  GI50: > 100 µM (inactive)
HOP-92
  GI50: > 48.2 µM (inactive)
PC-3
  GI50: 16.4 µM (inactive)
SK-MEL-2
  GI50: 60.7 µM (inactive)
OVCAR-3
  GI50: 46.8 µM (inactive)
MOLT-4
  GI50: 15.2 µM (inactive)
Hs-578T
  GI50: > 77.4 µM (inactive)
OVCAR-8
  GI50: 75.5 µM (inactive)
K562
  GI50: 6.41 µM (inactive)
HCT-116
  GI50: 19.5 µM (inactive)
KM12
  GI50: 5.56 µM (inactive)
LOX IMVI
  GI50: 50.1 µM (inactive)
RPMI-8226
  GI50: 13 µM (inactive)
HOP-62
  GI50: > 100 µM (inactive)
BT-549
  GI50: > 82.8 µM (inactive)
A498
  GI50: > 72.9 µM (inactive)
ACHN
  GI50: 61.5 µM (inactive)
SR
  GI50: 3.22 µM (inactive)
HT-29
  GI50: 8.89 µM (inactive)
786-0
  GI50: > 100 µM (inactive)
A549
  GI50: 47.5 µM (inactive)
SF-295
  GI50: 33.7 µM (inactive)
SK-OV-3
  GI50: > 100 µM (inactive)
NCI-H460
  GI50: 59.8 µM (inactive)
MDA-MB-435
  GI50: 3.04 µM (inactive)
NCI-H226
  GI50: 27.9 µM (inactive)
OVCAR-5
  GI50: > 100 µM (inactive)
DU-145
  GI50: > 100 µM (inactive)
SNB-75
  GI50: > 80 µM (inactive)
SN12C
  GI50: > 94.4 µM (inactive)
OVCAR-4
  GI50: > 94.2 µM (inactive)
SF-268
  GI50: > 100 µM (inactive)
COLO 205
  GI50: 31.9 µM (inactive)
RXF 393
  GI50: > 56.9 µM (inactive)
NCI/ADR-RES
  GI50: 14.9 µM (inactive)
M14
  GI50: 58.2 µM (inactive)
EKVX
  GI50: 32.5 µM (inactive)
SK-MEL-28
  GI50: > 70.5 µM (inactive)
HCC 2998
  GI50: 31.8 µM (inactive)
T47D
  GI50: 26.2 µM (inactive)
CAKI-1
  GI50: 36.1 µM (inactive)
CCRF-CEM
  GI50: 34.4 µM (inactive)
UACC-257
  GI50: > 89.1 µM (inactive)
U-251
  GI50: 97.7 µM (inactive)
TK-10
  GI50: > 83.4 µM (inactive)
SF-539
  GI50: > 69.5 µM (inactive)
UO-31
  GI50: 44.5 µM (inactive)
SK-MEL-5
  GI50: 13.7 µM (inactive)
UACC-62
  GI50: 51.3 µM (inactive)

## C=C1C[C@]23CC[C@@H]4C(CO)(CO)CC(=O)C[C@]4(C)[C@@H]2C(O)C[C@H]1C3 (stereo partly specified)
SW-620
  GI50: > 100 µM (inactive)
NCI-H23
  GI50: > 100 µM (inactive)
MCF7
  GI50: > 100 µM (inactive)
HL-60
  GI50: > 100 µM (inactive)
Malme-3M
  GI50: > 100 µM (inactive)
IGROV-1
  GI50: > 100 µM (inactive)
HCT-15
  GI50: > 100 µM
NCI-H522
  GI50: > 100 µM (inactive)
MDA-MB-231
  GI50: > 100 µM (inactive)
SNB-19
  GI50: > 100 µM (inactive)
HOP-92
  GI50: > 100 µM (inactive)
PC-3
  GI50: > 100 µM (inactive)
SK-MEL-2
  GI50: > 100 µM (inactive)
OVCAR-3
  GI50: > 100 µM (inactive)
MOLT-4
  GI50: > 100 µM (inactive)
Hs-578T
  GI50: > 100 µM (inactive)
OVCAR-8
  GI50: > 100 µM (inactive)
K562
  GI50: > 100 µM (inactive)
HCT-116
  GI50: > 100 µM (inactive)
KM12
  GI50: > 100 µM (inactive)
LOX IMVI
  GI50: > 100 µM (inactive)
RPMI-8226
  GI50: > 100 µM (inactive)
HOP-62
  GI50: > 100 µM (inactive)
BT-549
  GI50: > 100 µM (inactive)
MDA-N
  GI50: > 100 µM (inactive)
ACHN
  GI50: > 100 µM (inactive)
SR
  GI50: > 100 µM (inactive)
HT-29
  GI50: > 100 µM (inactive)
786-0
  GI50: > 100 µM (inactive)
A549
  GI50: > 100 µM (inactive)
SF-295
  GI50: > 100 µM (inactive)
SK-OV-3
  GI50: > 100 µM (inactive)
NCI-H460
  GI50: > 100 µM (inactive)
MDA-MB-435
  GI50: > 100 µM (inactive)
NCI-H226
  GI50: > 100 µM (inactive)
OVCAR-5
  GI50: > 100 µM (inactive)
DU-145
  GI50: > 100 µM (inactive)
SNB-75
  GI50: > 100 µM (inactive)
SN12C
  GI50: > 100 µM (inactive)
OVCAR-4
  GI50: > 100 µM (inactive)
SF-268
  GI50: > 100 µM (inactive)
COLO 205
  GI50: > 100 µM (inactive)
NCI/ADR-RES
  GI50: > 100 µM (inactive)
M14
  GI50: > 100 µM (inactive)
EKVX
  GI50: > 100 µM (inactive)
SK-MEL-28
  GI50: > 100 µM (inactive)
HCC 2998
  GI50: > 100 µM (inactive)
CAKI-1
  GI50: > 100 µM (inactive)
CCRF-CEM
  GI50: > 100 µM (inactive)
UACC-257
  GI50: > 100 µM (inactive)
U-251
  GI50: > 100 µM (inactive)
TK-10
  GI50: > 100 µM (inactive)
SF-539
  GI50: > 100 µM (inactive)
UO-31
  GI50: > 100 µM (inactive)
UACC-62
  GI50: > 100 µM (inactive)

## CCCCc1ccc(Nc2nc(SC)c3[nH]cnc3n2)cc1
SW-620
  GI50: 24.5 µM (inactive)
NCI-H23
  GI50: 28.6 µM (inactive)
MCF7
  GI50: > 24.4 µM (inactive)
HL-60
  GI50: 3.43 µM (inactive)
Malme-3M
  GI50: > 100 µM (inactive)
IGROV-1
  GI50: 24.7 µM (inactive)
HCT-15
  GI50: > 32.9 µM
NCI-H522
  GI50: 20.6 µM (inactive)
MDA-MB-231
  GI50: 84.3 µM (inactive)
SNB-19
  GI50: 36.6 µM (inactive)
HOP-92
  GI50: 15.5 µM (inactive)
PC-3
  GI50: > 100 µM (inactive)
SK-MEL-2
  GI50: > 38.5 µM (inactive)
OVCAR-3
  GI50: > 55 µM (inactive)
MOLT-4
  GI50: 2.81 µM (inactive)
Hs-578T
  GI50: 43 µM (inactive)
OVCAR-8
  GI50: 30.2 µM (inactive)
K562
  GI50: 3.61 µM (inactive)
HCT-116
  GI50: 23.6 µM (inactive)
KM12
  GI50: 17.9 µM (inactive)
LOX IMVI
  GI50: > 46.6 µM (inactive)
RPMI-8226
  GI50: > 56 µM (inactive)
HOP-62
  GI50: 10.2 µM (inactive)
BT-549
  GI50: > 100 µM (inactive)
A498
  GI50: 18.7 µM (inactive)
ACHN
  GI50: 12.7 µM (inactive)
SR
  GI50: 2.01 µM (inactive)
HT-29
  GI50: 15.8 µM (inactive)
786-0
  GI50: 16.4 µM (inactive)
A549
  GI50: > 100 µM (inactive)
SF-295
  GI50: > 47.9 µM (inactive)
SK-OV-3
  GI50: > 43.5 µM (inactive)
NCI-H460
  GI50: 13.9 µM (inactive)
MDA-MB-435
  GI50: 5.33 µM (inactive)
NCI-H226
  GI50: > 73.6 µM (inactive)
OVCAR-5
  GI50: > 100 µM (inactive)
DU-145
  GI50: > 100 µM (inactive)
SNB-75
  GI50: > 100 µM (inactive)
SN12C
  GI50: > 84.9 µM (inactive)
OVCAR-4
  GI50: > 100 µM (inactive)
SF-268
  GI50: 65.5 µM (inactive)
COLO 205
  GI50: > 91.2 µM (inactive)
RXF 393
  GI50: 28.2 µM (inactive)
NCI/ADR-RES
  GI50: 23.6 µM (inactive)
M14
  GI50: > 100 µM (inactive)
EKVX
  GI50: 24.9 µM (inactive)
SK-MEL-28
  GI50: > 100 µM (inactive)
HCC 2998
  GI50: > 80.4 µM (inactive)
T47D
  GI50: > 100 µM (inactive)
CAKI-1
  GI50: 16.9 µM (inactive)
CCRF-CEM
  GI50: 6.19 µM (inactive)
UACC-257
  GI50: > 100 µM (inactive)
U-251
  GI50: 26.2 µM (inactive)
TK-10
  GI50: 45.2 µM (inactive)
SF-539
  GI50: 36.6 µM (inactive)
UO-31
  GI50: > 78.2 µM (inactive)
SK-MEL-5
  GI50: 17.7 µM (inactive)
UACC-62
  GI50: 45.5 µM (inactive)
